Results as given in ChEMBL document CHEMBL1201862, “PubChem BioAssay data set” (2004).
Calls of active or inactive are those of the source.

What was measured:
[1] = biological target: Intestinal-type alkaline phosphatase (Homo sapiens, UniProt P09923); assay: Dose Response confirmation of uHTS hits from a small molecule inhibitors of human intestinal alkaline phosphatase via a luminescent assay. [Related pubchem assays (depositor defined):AID2544, AID2574]; type: functional
[2] = biological target: Mothers against decapentaplegic homolog 3 (Homo sapiens, UniProt P84022); assay: inhibitors of SMAD-driven TGF-beta signaling – dose response (AID 715); type: functional
SUMO-activating enzyme = SUMO-activating enzyme (Homo sapiens, UniProt Q9UBT2); assay: blockers of SAE1/SAE2–UBC9 SUMO transfer – biochemical, HTRF, uHTS, primary screen (AID 2006); type: protein-complex assay
[3] = biological target: T1, Histone-lysine N-methyltransferase NSD2 (Homo sapiens, UniProt O96028); type: biochemical
T1 sequence (O96028 whole entry): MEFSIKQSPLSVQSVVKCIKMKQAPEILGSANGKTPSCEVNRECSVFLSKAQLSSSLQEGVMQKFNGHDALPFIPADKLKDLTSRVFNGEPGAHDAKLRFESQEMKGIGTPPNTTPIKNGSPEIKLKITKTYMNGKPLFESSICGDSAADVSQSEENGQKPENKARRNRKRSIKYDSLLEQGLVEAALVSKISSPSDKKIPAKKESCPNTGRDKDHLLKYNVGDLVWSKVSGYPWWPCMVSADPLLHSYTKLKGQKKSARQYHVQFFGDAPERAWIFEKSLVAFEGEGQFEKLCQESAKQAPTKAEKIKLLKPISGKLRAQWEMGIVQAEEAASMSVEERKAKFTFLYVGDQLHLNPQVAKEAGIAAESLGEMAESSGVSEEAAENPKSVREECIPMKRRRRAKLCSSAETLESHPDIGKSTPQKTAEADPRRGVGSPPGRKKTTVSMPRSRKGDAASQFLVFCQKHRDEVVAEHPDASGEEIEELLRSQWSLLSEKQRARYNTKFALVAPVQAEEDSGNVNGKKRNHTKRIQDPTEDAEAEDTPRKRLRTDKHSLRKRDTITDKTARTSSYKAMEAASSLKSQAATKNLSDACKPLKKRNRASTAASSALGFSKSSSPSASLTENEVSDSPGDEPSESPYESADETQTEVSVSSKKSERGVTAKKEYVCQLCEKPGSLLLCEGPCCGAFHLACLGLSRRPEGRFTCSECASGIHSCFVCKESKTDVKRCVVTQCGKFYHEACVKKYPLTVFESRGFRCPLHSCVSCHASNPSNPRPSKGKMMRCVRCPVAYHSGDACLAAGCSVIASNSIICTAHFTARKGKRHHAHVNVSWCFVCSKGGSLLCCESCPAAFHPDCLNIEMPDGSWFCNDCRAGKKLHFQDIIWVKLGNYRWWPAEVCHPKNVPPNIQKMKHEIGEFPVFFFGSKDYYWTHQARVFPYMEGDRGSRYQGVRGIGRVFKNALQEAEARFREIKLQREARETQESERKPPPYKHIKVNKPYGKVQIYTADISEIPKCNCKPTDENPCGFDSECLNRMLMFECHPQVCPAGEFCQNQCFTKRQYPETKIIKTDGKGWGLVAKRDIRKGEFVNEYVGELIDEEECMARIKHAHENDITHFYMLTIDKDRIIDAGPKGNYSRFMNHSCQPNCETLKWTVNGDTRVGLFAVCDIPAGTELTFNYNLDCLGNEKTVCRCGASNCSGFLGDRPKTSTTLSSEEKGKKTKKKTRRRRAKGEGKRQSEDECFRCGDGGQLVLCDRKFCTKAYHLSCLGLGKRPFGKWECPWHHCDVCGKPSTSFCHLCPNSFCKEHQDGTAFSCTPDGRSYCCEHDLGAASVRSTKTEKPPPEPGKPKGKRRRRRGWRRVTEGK

Caspase-3 = biological target: T2, Caspase-3 (Homo sapiens, UniProt P42574); assay: Dose-response confirmation of uHTS inhibitor hits of Sentrin-Specific Protease 8 in a Caspase-3 Fluorescence assay.; type: functional
T2 sequence (P42574 whole entry): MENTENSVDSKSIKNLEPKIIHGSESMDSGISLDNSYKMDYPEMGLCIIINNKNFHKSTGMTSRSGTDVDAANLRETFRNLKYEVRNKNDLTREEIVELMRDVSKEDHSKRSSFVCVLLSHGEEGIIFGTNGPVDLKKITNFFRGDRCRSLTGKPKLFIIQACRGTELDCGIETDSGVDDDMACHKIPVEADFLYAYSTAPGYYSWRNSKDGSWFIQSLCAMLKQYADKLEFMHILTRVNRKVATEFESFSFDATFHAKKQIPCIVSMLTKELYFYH

[4] = biological target: T3, Sentrin-specific protease 8 (Homo sapiens, UniProt Q96LD8); type: functional
T3 sequence (Q96LD8 whole entry): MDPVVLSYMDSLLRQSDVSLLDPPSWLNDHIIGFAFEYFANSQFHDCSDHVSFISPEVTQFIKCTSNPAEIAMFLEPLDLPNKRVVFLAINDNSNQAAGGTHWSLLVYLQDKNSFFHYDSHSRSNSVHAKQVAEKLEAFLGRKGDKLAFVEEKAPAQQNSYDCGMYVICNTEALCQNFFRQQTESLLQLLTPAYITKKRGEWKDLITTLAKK

[5] = biological target: T3, Sentrin-specific protease 8; type: functional; remark: listed apart in the source
[6] = viability loss in THP-1 monocytes – THP-1 cells, cytotoxicity control for Vif-APOBEC3G degradation inhibitor project, dose response (AID 1117359); type: functional; details: THP-1

SUMO-activating enzyme, sequence (Q9UBE0 whole entry): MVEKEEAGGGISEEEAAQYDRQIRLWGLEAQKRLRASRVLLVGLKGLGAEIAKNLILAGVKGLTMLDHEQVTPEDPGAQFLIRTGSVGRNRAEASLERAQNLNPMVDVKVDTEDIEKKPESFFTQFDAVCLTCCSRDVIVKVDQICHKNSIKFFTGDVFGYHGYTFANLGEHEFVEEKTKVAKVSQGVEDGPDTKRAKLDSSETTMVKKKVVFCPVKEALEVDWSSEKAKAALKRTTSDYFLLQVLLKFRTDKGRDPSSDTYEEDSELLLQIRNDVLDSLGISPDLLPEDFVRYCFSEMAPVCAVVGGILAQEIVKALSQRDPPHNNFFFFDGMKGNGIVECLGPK
SUMO-activating enzyme, sequence (Q9UBT2 whole entry): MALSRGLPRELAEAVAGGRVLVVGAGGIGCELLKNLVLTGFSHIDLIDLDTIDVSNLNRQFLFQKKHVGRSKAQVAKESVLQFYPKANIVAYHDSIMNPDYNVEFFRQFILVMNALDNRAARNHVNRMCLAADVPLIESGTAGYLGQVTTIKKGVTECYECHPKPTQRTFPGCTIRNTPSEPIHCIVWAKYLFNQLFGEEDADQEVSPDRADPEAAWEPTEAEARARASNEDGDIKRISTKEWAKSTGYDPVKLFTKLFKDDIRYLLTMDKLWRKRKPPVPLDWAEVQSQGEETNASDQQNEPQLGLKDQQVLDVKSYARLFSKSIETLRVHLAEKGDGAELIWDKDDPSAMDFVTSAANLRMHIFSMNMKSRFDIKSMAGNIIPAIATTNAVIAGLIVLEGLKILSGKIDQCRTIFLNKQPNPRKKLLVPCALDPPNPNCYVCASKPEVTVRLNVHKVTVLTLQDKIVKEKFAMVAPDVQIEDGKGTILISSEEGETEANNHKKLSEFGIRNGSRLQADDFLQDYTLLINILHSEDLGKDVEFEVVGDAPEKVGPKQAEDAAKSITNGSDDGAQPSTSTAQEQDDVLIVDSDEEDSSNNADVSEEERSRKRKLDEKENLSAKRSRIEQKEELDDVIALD
Mothers against decapentaplegic homolog 3, sequence (P84022 whole entry): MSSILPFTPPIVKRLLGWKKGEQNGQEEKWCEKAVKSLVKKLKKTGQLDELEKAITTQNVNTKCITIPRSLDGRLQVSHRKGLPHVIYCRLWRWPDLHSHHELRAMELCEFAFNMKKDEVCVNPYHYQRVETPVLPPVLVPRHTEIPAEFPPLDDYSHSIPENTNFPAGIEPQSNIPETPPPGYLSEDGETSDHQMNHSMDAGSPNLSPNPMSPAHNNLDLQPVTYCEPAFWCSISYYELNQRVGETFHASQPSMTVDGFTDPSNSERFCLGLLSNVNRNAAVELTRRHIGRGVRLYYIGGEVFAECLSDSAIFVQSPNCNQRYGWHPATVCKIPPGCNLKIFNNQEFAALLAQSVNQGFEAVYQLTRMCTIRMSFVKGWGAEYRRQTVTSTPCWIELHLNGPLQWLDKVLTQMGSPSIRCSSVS
Intestinal-type alkaline phosphatase, sequence (P09923 whole entry): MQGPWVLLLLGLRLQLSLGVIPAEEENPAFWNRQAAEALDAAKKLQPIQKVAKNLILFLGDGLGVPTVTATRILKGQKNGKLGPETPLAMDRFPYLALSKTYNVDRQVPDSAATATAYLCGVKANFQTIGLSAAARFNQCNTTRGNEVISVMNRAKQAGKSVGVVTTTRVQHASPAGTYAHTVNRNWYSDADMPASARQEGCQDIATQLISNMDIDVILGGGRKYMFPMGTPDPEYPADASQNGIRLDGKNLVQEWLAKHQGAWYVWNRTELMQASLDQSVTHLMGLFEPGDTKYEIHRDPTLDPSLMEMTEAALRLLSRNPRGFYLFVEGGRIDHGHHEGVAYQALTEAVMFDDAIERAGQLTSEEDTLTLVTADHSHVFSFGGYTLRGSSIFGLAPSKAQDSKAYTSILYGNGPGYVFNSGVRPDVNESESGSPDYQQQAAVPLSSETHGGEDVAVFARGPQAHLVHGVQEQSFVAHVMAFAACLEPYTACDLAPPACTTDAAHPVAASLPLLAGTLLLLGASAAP

Row | SMILES | IC50 [1] | IC50 [2] | IC50 (SUMO-activating enzyme) | AC50 [3] | IC50 (Caspase-3) | IC50 [4] | IC50 [5] | CC50 [6]
1 | Nc1c(N2CCCC2)cc(Cl)c2nonc12 | > 100 µM (inactive) | 18.3 µM (active) | 5.6 µM (active) |  |  |  |  | 
2 | O=C(NNc1cc(N2CCOCC2)nc(N2CCOCC2)n1)c1ccc([N+](=O)[O-])cc1 |  |  | 15.8 µM (active) | 2.56 µM (active) | 20.9 µM (active) | 2.86 µM (active) | 3.2 µM (active) | 
3 | Oc1ccc(/N=C/c2ccc(OCc3ccccc3)cc2)cc1 |  |  |  |  |  |  |  | > 40 µM (active)
